We go through one compound from patent US7981878B2, “Tumor treatment with gliotoxin derivatives” (priority 2005, dated 2011).

The subject of one data set is CD23. In words: CD23 expression (Notch2 target gene) in B-CLL cells by FACS. Format: cell-based, human. To be noted: 0.2 μM gliotoxin, 24 h. The protocol:
FIG. 3: Gliotoxin is a potent Notch2 trans-activation inhibitor in B-CLL cells. (A) EMSA showing the inhibition of DNA-bound Notch2IC complexes in the presence of 0.2 μg Gliotoxin. B-CLL samples (n=10) were cultured in the presence of 1 ng/ml TPA with or without 0.2 μM Gliotoxin for 24 hours. Nuclear extracts were subjected to EMSA using a oligonucleotide probe spanning a well defined CBF1/NotchIC binding site derived from the CD23a promoter. (B). Corresponding FACS analysis (plus 10 additional B-CLL samples) showing the downregulation of the Notch2 target gene CD23 as well as the induction of apoptosis of Gliotoxin treated B-CLL samples. Columnes represent the percentage of CD19^+CD23^+ (grey bars) and apoptotic cells (black bars: including early apoptotic cells single positive for AnnexinV, and late apoptotic cells double positive for AnnexinV and probidium iodide), respectively.
As drug screening model, a cell culture system was established which conserves the phenotype of freshly isolated B-CLL cells (3×10^6 B-CLL cells/ml RPMI medium+10% FCS, supplemented with 1 ng/ml of TPA). Notch2 activity in the cell nucleus is determined by means of EMSA (electrophoretic mobility shift assay) experiments, and the cell viability (Probidium iodide/annexinV) and CD23 expression (Notch2 target gene) is determined by means of FACS (flow cytometry) analyses, respectively. […]
(In general: A flow cytometer gives signals particle by particle.)

The subject of data set [1] is MiaPaCa (pancreas carcinoma). In words: Cell count analysis MiaPaCa. Format: cell-based, human. As to conditions: MiaPaCa, 25, 50, 100 and 200 nM, 24 h. The protocol: (§1) FIG. 8 a-d: Effects of gliotoxin on cell counts of various human tumour cell lines in vitro. Cell counts of a) hepatocellular carcinoma cell lines HepG2, Huh7, SNU398, Hep3b, HeLa (cervix) and the cholangiocarcinoma cell line NEC as well as b) the pancreatic cancer cell line Panc-1 and the melanoma cell lines d) MelJuso, Meljuso-Bcl-2 (+) and 607B after 72 h treatment with 200 nM gliotoxin; c-d) Cell count dose range experiments with c) pancreatic carcinoma cell lines Panc-1 and MiaPaCa as well as melanoma cell lines MelJuso, 518A2 and 607B using 25, 50 100 and 200 nM gliotoxin for 24 h. All data are given relative to control ±standard deviation.
(§2) Tumour cells were seeded at a density of 10,000 cells/well in 24-well plates. 24 h after seeding, medium containing gliotoxin was added to yield desired concentrations of gliotoxin. At time points indicated, culture medium was removed by suction. Adherent cells were washed with DPBS (Cambrex, Verviers, Belgium) and incubated with trypsin (Gibco) at 37° C. Detached cells were transferred to test tubes containing Cellpack isotonic fluid (Sysmex Europe, Bornbarch, Germany) and counted with a Coulter Z1 electronic cell counter (Beckman Coulter, Bedford, UK).

In data set [2] the test system is Huh7 (hepatocellular carcinoma). In words: Cell count analysis Huh7. Type of data set: cell-based, human. To be noted: Huh7, 200 nM gliotoxin, 72 h. The protocol:
as §1, §2

A further data set relates to 607B (melanoma). In words: Cell count analysis 607B. Type of data set: cell-based, human. The protocol:
as §1, §2

Data set [3] has as its system PBMCs from healthy donors. As to the kind of experiment: Apoptosis of control PBMCs from healthy donors by FACS. As to conditions: 0.2 μM gliotoxin, 4 hours. Type of data set: cell-based, human. The protocol:
FIG. 4: Gliotoxin induces apoptosis in unstimulated as well as in TPA-stimulated B-CLL cells within 4 hours. Normal PBMCs (peripheral blood mononuclear cells) from healthy donors show a markedly lower Notch2 activity. Although gliotoxin inhibits Notch2 also in normal, TPA-stimulated cells, the gliotoxin-caused apoptosis rate is markedly lower in normal cells as compared to B-CLL cells. Non-stimulated and TPA stimulated PBMC's from healthy donors (HD) are less sensitive to 0.2 μM Gliotoxin despite a basal Notch2 activity. PBMC's and CLL cells were incubated with 0.2 μM Gliotoxin with or without TPA for 4 hours and the Notch2 activity as well as the percentage of apoptotic cells were determined by EMSA and FACS analysis, respectively.
After 4 hours of gliotoxin treatment, massive signs of the starting apoptosis (AnnexinV+) could already be recognized in B-CLL cells. This effect was increased by TPA (a phorbol ester which stimulates the activation of lymphocytes).

Another data set concerns 518A2 melanoma xenograft. As to the kind of experiment: 518A2 melanoma nude mouse xenograft model. Format: in vivo. The source says:
FIG. 9: Effects of gliotoxin in a 518A2 melanoma nude mouse xenograft model. 518 A2 cells (9×10^6) were inoculated into the lower right and left flank of each mouse. […] The flexible dose and treatment schedule of each group are given in the squares next to each group in the figure. All data are given as mean tumour volumes ±95% CI. The dotted arrows indicate a significant decrease of tumour volume (Wilcoxon matched pairs test, P<0.05) within Group 2 and Group 4 three days after application of 5 mg-0-2.5 mg of gliotoxin. It was shown that even at late administrations with progressed tumours gliotoxin administration is effective group 4 (ip administration at day 25).
Pathogen-free, 4-6 week old, female athymic nude mice (Harlan Winkelmann, Borchen, Germany) were housed under sterile conditions and treated according to the regulations of the local animal welfare committee. Hundred μl of a tumour cell suspension in DPBS containing 9×10^6 518A2 cells were inoculated into the lower right and left flank of each mouse. When mean tumour volume reached approximately 75 mm^3 (based on caliper measurements), mice (n=8/control group, n=6/treatment group) were randomly assigned to treatment groups and received one of the following treatment regimens:
Control (2% DMSO), Group 1 (start dose 1 mg/kg i.p.), Group 2 (start dose 5 mg/kg i.v.), and Group 3 (start dose 5 mg ip) and Group 4 (start dose 7 mg s.c.).
Flexible explorative dosing schedule was used in this in vivo trial: At baseline, all treatment groups received their respective start dose to estimate immediate toxicity of gliotoxin. Beginning with day 4:
Group 1 received 1 mg/kg daily including day 19.
Group 2 received 5 mg i.v. at day 4 and day 7 followed by 5 mg-0-2.5 mg ip at day 11
Group 3 received 5 mg/kg i.p. once weakly including day 18.
Group 4 remained untreated until day 25 and received then 5 mg-0-2.5 mg once only. The trial was stopped when control mice reached a mean tumour volume of 1000 mm^3.
In the xenograft melanoma model, tumour volume of each group is given as mean±95% confidence interval. The anti-tumour effect of gliotoxin was described as tumour volume of treatment group/tumour volume of control group×100 (T/C).

Turning to `CN1C(=O)[C@]23CC4=CC=C[C@H](O)[C@H]4N2C(=O)[C@@]1(CO)SS3` [gliotoxin, [3R-(3α,5aβ,6β,10aα)]-2,3,5a,6-tetrahydro-6-hydroxy-3-(hydroxymethyl)-2-methyl-10H-3,10a-epi-dithiopyrazino[1,2-a]indol-1,4-dion], the CD23 expression entry in the data set with CD23 is recorded as “loss of the CD23 expression”. Further, the “cytotoxicity in dose range experiment (cell count)” value in data set [1] is “clear dose dependent cytotoxicity”; in the data set on 607B (melanoma) (607B, 25, 50, 100 and 200 nM, 24 h), “clear dose dependent cytotoxicity”. Besides, the “mean reduction of cell numbers compared to vehicle treated controls” value in data set [2] was determined as 31%. For the same compound, the “effect on cell count” value with 607B (melanoma) (607B, 200 nM gliotoxin, 72 h) was “very effective”. The figures for the apoptosis in data set [3] (TPA-stimulated PBMCs) and in data set [3] (non-stimulated PBMCs) were 17% and 20%, respectively. The “T/C (tumour volume of treatment group/control group×100)” value is given as 37% in the data set with 518A2 melanoma xenograft (Group 1, 1 mg/kg i.p. daily until day 19, day 21); 32% with 518A2 melanoma xenograft (Group 2, 3×5 mg iv within 7 days then 1×5 mg-0-2.5 mg ip day 11, day 21); 49% with 518A2 melanoma xenograft (Group 3, 5 mg/kg i.p. weekly until day 18, day 21); 23% in the data set on 518A2 melanoma xenograft (Group 4, 5 mg-0-2.5 mg once at day 25, day 32); 92% with 518A2 melanoma xenograft (Group 4, single 7 mg/kg s.c. start dose, then untreated, day 25). The mean tumour volume stood at 115 mm^3 in the data set with 518A2 melanoma xenograft (Group 2, day 11 (before application of 5 mg-0-2.5 mg)); 83 mm^3 in the data set on 518A2 melanoma xenograft (Group 2, day 15 (after application of 5 mg-0-2.5 mg at day 11)); 576 mm^3 in the data set on 518A2 melanoma xenograft (Group 4, day 25 (before application of 5 mg-0-2.5 mg)); 218 mm^3 in the data set with 518A2 melanoma xenograft (Group 4, day 28 (after application of 5 mg-0-2.5 mg at day 25)). The “toxicity after subcutaneous application” value in the data set on 518A2 melanoma xenograft (Group 4, 7 mg/kg s.c. start dose, nude mice) is reported as “severe local toxicity”.
